Laboratory results taken from ChEMBL document CHEMBL1201862, “PubChem BioAssay data set” (2004).
Active and inactive are the calls of the source.

Key:
Aminopeptidase N = target: T1, Aminopeptidase N (Plasmodium falciparum FcB1/Columbia, UniProt O96935); test: P. falciparum M1AAP inhibitors, biochemical, fluorogenic H-Leu-NHMec substrate, 1536-well (AID 1445); design: species or system Plasmodium falciparum 3D7, 3D7
T1 sequence (O96935 whole entry): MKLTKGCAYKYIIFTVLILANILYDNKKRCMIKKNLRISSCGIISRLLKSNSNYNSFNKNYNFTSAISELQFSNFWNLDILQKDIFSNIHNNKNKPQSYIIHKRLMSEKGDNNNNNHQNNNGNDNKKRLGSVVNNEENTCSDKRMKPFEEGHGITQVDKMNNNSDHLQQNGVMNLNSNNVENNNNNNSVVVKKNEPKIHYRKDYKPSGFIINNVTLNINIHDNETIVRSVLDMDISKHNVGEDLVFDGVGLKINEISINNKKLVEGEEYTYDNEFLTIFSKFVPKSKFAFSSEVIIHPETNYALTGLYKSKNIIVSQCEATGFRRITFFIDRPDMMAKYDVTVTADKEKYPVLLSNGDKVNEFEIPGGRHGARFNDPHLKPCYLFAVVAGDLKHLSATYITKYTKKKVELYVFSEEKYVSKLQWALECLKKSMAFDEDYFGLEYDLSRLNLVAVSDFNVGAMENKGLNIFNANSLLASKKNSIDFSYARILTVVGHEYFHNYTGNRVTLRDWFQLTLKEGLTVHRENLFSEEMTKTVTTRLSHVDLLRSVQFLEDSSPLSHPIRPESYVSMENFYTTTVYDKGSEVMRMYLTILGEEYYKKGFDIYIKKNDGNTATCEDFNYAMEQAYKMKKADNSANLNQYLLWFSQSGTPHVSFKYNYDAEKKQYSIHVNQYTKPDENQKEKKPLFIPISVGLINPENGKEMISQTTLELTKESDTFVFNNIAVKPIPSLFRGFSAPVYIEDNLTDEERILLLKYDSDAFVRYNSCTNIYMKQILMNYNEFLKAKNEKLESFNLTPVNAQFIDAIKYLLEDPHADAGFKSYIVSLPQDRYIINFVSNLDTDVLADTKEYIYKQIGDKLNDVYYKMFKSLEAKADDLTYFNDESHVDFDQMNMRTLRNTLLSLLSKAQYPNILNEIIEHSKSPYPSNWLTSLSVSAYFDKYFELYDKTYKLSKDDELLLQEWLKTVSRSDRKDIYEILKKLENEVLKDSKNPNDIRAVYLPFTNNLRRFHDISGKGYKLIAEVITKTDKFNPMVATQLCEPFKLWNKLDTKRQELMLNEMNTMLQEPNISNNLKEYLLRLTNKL

[1] = target: Polyadenylate-binding protein 1 (Homo sapiens, UniProt P11940); test: PABP poly(A) RNA binding inhibitors, primary screen, biochemical, fluorescence polarization, uHTS (AID 2014)
[2] = target: Eukaryotic translation initiation factor 4H (Homo sapiens, UniProt Q15056); test: human eIF4H binding inhibitors, primary screen, translation initiation inhibitor project, biochemical, uHTS, fluorescence polarization (AID 2012)
[3] = target: T2, Alkaline phosphatase, tissue-nonspecific isozyme (Homo sapiens, UniProt P05186); test: human TNAP enzyme inhibitors, SAR follow-up, biochemical, luminescent, dose response (AID 1056)
T2 sequence (P05186 whole entry): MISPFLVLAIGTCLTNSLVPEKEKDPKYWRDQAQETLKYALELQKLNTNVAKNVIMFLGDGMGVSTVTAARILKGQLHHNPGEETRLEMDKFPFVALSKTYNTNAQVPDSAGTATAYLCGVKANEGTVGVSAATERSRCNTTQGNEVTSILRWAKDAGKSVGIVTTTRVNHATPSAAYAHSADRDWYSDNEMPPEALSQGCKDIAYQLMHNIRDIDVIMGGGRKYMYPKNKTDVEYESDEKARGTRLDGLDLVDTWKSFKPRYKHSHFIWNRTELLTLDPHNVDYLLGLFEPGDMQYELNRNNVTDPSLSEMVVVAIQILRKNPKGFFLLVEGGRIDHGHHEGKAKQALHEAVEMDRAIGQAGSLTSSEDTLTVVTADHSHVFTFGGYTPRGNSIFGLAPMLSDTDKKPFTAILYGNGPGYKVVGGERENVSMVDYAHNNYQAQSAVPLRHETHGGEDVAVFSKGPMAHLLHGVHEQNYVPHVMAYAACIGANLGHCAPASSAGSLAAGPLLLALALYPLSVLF

[4] = target: Glyceraldehyde-3-phosphate dehydrogenase (Homo sapiens, UniProt P04406)
[5] = target: Alkaline phosphatase, placental type (Homo sapiens, UniProt P05187); test: PLAP enzyme inhibitors, confirmation, biochemical, luminescence (AID 1512); type: functional
[6] = Luminescence Cell-Based Dose Confirmation HTS to Identify Activators of 5'UTR Stem-Loop Driven Alpha-Synuclein mRNA Translation in H4 Neuroglioblastoma Cells. [Related pubchem assays: 1829 (Project Summary), 1814 (Primary HTS)]; type: functional
Genome polyprotein = Genome polyprotein (dengue virus type 2, UniProt P29990); test: Dengue-2 NS5 methyltransferase inhibitors, primary screen, biochemical, confirmation dose response (AID 588689); type: functional
[7] = HEp-2 cell cytotoxicity, dose response, cytotoxicity control for RSV inhibitor project, HTS (AID 2410); type: functional; conditions: human respiratory syncytial virus
[8] = cytotoxicity toward NIH3T3 fibroblasts, dose response, counter-screen, cell-based, ATP luminescence, mouse fibroblasts (AID 2010); type: functional;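 note: cells exposed to compound for about 90 hours before reading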
[9] = Luminescence Cell-Based Dose Response HTS to Identify Activators of Luciferase Translation or Activity in H4 […] Cells. [Related pubchem assays: 1829 (Project Summary), 1814 (Primary HTS)]; type: functional
[10] = inhibitors of intracellular T. cruzi replication, confirmation, NIH3T3 host cells, beta-gal luminescence (AID 2044); type: functional, cell-based;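 note: intracellular parasites grown in NIH/3T3 mouse fibroblasts as host cells; luminescent beta-galactosidase reporter signal from transgenic T. cruzi replicating inside host cells; inhibitors lower the luminescence signal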
H4 = test: Luminescence Cell-Based Dose Response HTS to Identify Activators of 5'UTR Stem-Loop Driven Prion Protein mRNA Translation in H4 Neuroglioblastoma Cells. [Related pubchem assays: 1829 (Project Summary), 1814 (Primary HTS)]; type: functional; conditions: Homo sapiens
[11] = target: DNA dC->dU-editing enzyme APOBEC-3A (Homo sapiens, UniProt P31941); test: Dose Response confirmation of small molecule APOBEC3A DNA Deaminase Inhibitors via a fluorescence-based single-stranded DNA deaminase assay. [Related pubchem assays (depositor defined):AID493011, AID493024]; type: functional
[12] = target: DNA dC->dU-editing enzyme APOBEC-3G (Homo sapiens, UniProt Q9HC16); type: functional;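 note: Dose-response counterscreen measuring inhibition of APOBEC3G DNA deaminase activity, run while confirming APOBEC3A inhibitors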
[13] = target: T3, Short transient receptor potential channel 4 (Mus musculus, UniProt Q9QUQ5); test: mouse TRPC4 channel inhibitors, dose response, cell-based, HEK293 TRPC4/mu-opioid, Fluo-4 calcium (AID 434942); type: functional;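 note: potency of inhibitors blocking the TRPC4 calcium response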
T3 sequence (Q9QUQ5 whole entry): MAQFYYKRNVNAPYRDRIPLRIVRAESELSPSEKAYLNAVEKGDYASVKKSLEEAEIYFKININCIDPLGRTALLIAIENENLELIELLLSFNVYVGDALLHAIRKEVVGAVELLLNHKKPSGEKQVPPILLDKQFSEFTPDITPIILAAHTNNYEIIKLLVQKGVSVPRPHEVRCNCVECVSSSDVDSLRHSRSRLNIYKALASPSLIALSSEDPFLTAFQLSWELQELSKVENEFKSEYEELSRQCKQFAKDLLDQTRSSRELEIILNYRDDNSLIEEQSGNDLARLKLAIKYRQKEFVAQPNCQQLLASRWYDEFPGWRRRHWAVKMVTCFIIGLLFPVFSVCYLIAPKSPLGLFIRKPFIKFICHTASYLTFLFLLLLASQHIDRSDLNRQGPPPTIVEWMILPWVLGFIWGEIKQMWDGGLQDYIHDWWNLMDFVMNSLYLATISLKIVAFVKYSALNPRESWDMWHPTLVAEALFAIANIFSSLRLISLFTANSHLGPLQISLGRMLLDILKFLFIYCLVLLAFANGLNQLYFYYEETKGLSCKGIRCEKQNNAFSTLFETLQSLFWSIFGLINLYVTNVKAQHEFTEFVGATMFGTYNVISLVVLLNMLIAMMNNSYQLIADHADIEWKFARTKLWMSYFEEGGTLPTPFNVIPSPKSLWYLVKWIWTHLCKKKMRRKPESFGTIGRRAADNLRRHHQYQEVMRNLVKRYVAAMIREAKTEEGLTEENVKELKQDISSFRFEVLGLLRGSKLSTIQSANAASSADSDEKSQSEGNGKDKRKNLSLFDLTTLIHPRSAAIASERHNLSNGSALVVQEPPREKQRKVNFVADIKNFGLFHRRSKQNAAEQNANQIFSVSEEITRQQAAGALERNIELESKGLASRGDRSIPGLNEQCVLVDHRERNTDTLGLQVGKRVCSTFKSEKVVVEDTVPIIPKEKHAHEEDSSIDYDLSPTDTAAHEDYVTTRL

X-box-binding protein 1 = target: T4, X-box-binding protein 1 (Homo sapiens, UniProt P17861); type: functional, Cricetulus griseus;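 note: confirmatory dose-response counter-screen serving a CHOP assay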
T4 sequence (P17861 whole entry): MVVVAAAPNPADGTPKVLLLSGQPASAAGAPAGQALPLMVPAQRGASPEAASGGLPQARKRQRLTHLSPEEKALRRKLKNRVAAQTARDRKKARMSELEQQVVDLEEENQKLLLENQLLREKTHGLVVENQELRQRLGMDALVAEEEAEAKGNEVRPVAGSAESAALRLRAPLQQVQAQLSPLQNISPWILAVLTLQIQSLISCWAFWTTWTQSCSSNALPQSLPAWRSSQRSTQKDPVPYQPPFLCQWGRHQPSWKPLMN

[14] = A Cell Based Secondary Assay To Explore Cytotoxicity of Compounds that Sensitize Mycobacterium Tuberculosis to Beta-Lactam Antibiotics.; type: functional
[15] = NIH-3T3 fibroblast cytotoxicity, dose response, cytotoxicity control, cell-based, fluorescence, Alamar Blue, secondary assay (AID 2327); type: functional;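 note: NIH-3T3 mouse fibroblasts cultured with fluconazole at 8 µg/mL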
[16] = C. albicans growth with fluconazole, confirmation, fluorescence, retest (AID 2467); type: functional, cell-based
[17] = Luminescence Cell-Based Dose Retest to Confirm Inhibitors of Cancer Stem Cells. [Related pubchem assays (depositor defined):AID2717, AID2721]; type: functional; conditions: Homo sapiens
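Throughout, for AC50: cells exposed to compound for roughly 70 hours or longer before luminescence read.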

Chain of Alkaline phosphatase, placental type (P05187 whole entry): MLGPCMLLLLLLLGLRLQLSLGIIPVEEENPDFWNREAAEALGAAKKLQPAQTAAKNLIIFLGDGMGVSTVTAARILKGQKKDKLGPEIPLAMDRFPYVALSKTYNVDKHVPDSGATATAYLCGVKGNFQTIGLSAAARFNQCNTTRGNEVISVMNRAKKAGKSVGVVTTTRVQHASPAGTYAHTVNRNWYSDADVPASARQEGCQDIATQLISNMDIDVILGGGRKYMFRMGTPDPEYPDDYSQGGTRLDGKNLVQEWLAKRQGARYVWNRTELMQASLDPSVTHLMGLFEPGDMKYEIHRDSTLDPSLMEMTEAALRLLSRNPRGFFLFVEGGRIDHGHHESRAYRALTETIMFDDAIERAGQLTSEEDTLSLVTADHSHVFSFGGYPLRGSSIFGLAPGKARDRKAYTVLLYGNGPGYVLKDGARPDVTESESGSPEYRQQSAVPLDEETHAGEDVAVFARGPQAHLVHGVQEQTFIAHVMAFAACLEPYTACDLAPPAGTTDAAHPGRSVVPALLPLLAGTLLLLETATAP
Chain of Polyadenylate-binding protein 1 (P11940 whole entry): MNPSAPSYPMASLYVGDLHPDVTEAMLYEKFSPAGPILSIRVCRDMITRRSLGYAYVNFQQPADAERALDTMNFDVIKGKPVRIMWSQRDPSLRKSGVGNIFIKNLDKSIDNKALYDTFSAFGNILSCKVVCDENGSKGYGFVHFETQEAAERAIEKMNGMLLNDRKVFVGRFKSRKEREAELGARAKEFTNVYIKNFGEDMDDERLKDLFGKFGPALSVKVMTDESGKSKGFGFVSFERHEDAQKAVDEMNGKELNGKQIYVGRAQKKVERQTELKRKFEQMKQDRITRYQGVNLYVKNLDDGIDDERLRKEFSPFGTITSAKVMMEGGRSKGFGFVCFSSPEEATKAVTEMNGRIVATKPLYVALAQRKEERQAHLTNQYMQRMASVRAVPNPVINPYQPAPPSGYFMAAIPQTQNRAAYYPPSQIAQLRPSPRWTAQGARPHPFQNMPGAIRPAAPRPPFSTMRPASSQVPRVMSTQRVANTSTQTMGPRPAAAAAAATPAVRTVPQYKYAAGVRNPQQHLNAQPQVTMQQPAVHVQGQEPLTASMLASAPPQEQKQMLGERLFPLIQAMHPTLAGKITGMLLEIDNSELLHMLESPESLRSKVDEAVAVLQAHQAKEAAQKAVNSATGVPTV
Chain of DNA dC->dU-editing enzyme APOBEC-3G (Q9HC16 whole entry): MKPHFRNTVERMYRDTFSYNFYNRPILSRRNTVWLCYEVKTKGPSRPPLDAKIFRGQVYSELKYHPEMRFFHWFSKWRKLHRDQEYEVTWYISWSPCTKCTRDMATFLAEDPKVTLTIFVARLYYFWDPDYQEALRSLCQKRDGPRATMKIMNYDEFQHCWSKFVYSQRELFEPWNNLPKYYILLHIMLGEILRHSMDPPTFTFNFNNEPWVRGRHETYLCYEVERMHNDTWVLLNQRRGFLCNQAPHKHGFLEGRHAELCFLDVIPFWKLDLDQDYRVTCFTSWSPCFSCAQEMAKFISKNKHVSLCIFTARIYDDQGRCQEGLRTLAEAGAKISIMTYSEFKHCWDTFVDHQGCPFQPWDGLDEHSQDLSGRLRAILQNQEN
Chain of Glyceraldehyde-3-phosphate dehydrogenase (P04406 whole entry): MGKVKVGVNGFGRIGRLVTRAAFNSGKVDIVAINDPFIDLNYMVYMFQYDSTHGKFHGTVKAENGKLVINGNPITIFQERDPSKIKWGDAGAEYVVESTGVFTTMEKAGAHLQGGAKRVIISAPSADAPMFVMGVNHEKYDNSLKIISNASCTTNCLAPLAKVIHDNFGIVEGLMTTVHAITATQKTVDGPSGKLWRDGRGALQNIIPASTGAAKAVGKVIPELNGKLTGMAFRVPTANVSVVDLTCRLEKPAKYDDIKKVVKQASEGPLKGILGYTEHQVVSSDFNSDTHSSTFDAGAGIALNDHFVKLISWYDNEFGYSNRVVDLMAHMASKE
Chain of DNA dC->dU-editing enzyme APOBEC-3A (P31941 whole entry): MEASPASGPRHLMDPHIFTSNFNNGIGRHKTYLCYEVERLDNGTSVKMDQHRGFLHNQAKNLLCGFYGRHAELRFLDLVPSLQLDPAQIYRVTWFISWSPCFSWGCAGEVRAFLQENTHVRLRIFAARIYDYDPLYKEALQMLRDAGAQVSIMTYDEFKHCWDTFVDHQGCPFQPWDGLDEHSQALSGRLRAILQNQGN
Chain of Genome polyprotein (P29990 2492-3391 limits assumed): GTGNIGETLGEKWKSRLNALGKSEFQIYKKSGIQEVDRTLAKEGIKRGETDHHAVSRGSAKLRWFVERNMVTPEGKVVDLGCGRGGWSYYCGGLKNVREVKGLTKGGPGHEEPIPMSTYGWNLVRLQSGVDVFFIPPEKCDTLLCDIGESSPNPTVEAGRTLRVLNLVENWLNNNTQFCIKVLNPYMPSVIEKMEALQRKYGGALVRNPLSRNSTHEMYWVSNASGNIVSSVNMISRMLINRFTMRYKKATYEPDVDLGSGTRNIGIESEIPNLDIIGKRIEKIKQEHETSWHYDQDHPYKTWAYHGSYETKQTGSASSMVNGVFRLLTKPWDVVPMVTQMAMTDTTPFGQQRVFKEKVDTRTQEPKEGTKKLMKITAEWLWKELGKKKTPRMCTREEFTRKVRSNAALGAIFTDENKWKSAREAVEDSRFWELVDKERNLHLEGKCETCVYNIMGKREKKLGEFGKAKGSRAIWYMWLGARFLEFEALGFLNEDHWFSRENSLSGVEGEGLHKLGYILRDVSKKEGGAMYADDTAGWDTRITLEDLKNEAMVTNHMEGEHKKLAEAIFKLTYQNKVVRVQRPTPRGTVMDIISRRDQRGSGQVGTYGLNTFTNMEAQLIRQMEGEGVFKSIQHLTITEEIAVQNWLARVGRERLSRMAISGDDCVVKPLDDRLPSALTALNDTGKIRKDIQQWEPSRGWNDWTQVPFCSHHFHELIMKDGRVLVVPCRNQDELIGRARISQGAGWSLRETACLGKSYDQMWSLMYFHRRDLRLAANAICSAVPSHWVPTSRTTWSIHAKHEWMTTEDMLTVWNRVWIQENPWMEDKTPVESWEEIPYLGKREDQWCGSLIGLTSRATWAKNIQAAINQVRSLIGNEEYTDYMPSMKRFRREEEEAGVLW

Cc1ccc(C(=O)NCC(=O)OCC(=O)NC(C)c2ccccc2)s1 (stereo unspecified)
IC50 (Aminopeptidase N): 39.6 µM (active)

CC1=CC(C)C(CN(CCC[N+](C)(C)C)C(=O)Nc2ccccc2)C(C)C1 (stereo unspecified)
IC50 [1]: 4.08 µM (active) | IC50 [2]: > 100 µM (inactive)

Cc1[nH]c2ccccc2c1/C=C1\SC(=S)N(c2cccc(C(=O)O)c2)C1=O
IC50 (Aminopeptidase N): 55.9 µM (active)

COc1ccc(-c2nc3c4cnn(C)c4ncn3n2)cc1
IC50 [3]: > 100 µM (inactive) | IC50 [4]: > 100 µM (not active) | IC50 [5]: > 100 µM (inactive)

O=C(NC(=S)Nc1ccccc1C(=O)O)c1ccc(-c2ccc(Br)cc2)o1
EC50 [6]: 71.2 µM (active) | IC50 (cells): 6.21 µM (active) | IC50 (Genome polyprotein): 42.2 µM (active) | CC50 [7]: 19 µM (active) | EC50 [8]: > 60 µM (not active) | EC50 [9]: 12.5 µM (active) | EC50 [10]: 2.13 µM (active) | EC50 (H4): 22.1 µM (active)

COC(=O)CCCCCCCCC(O)C[N+]1(C)CCOCC1 (stereo unspecified)
IC50 [1]: 2.48 µM (active) | IC50 [11]: 2.36 µM (active) | IC50 [2]: > 100 µM (inactive) | IC50 [12]: 3.49 µM (active)

CC1(C)CC2CC(C)(CN2CC(O)COc2ccccc2)C1 (stereo unspecified)
EC50 [13]: 1.88 µM (active)

Cn1c(=O)cc(SCC(=O)NCCC2=CCCCC2)c2ccc(Cl)cc21
Absolute IC50 (XBP1) (X-box-binding protein 1): 10 µM

CCCCCCCCCCSc1nnc(NC(C)=O)[nH]1
IC50 [5]: > 100 µM (inactive)

C[C@H]1C=CC(=O)O[C@H]1c1ccccc1
CC50 [14]: 22.9 µM (active)

CCn1c(SCC(=O)NCc2ccccc2)nnc1C(CO)NC(=O)c1ccccc1 (stereo unspecified)
IC50 [1]: 6.06 µM (active) | IC50 [11]: 3.67 µM (active) | IC50 [2]: > 100 µM (inactive) | IC50 [12]: 4.48 µM (active)

NNC(=O)Cn1c(-c2nonc2N)nc2ccccc21
IC50 (Aminopeptidase N): 58.2 µM (active)

COC(=O)c1c(C)n(-c2ccccc2)c2ccc(O)cc12
EC50 [15]: 2.59 µM (inconclusive) | CC50 [14]: > 40 µM (active) | EC50 [16]: > 38 µM (not active)

O=C(c1ccc2c(c1)OCO2)C1CCCN(Cc2ccccc2OC(F)F)C1 (stereo unspecified)
EC50 [13]: 2.99 µM (active)

CCOC(=O)N1CCC(n2c(=S)[nH]c3cc(OCC)c(OCC)cc3c2=O)CC1
Absolute IC50 (XBP1) (X-box-binding protein 1): 10 µM

OCCCNc1cc(-c2ccccc2)nc2cc(-c3ccc(F)cc3)nn12
AC50 [17]: 6.05 µM (active) | IC50 (cells): 22.4 µM (active) | CC50 [7]: > 50 µM (active)

CCCCCC(=O)Nc1cccc(C2=NOC3(C2)C[C@@H](C(N)=O)N(C(=O)CC(c2ccccc2)c2ccccc2)C3)c1 (stereo partly specified)
CC50 [14]: > 40 µM (active) | EC50 [8]: > 60 µM (not active) | EC50 [10]: 0.396 µM (active)

COCCCNc1cc(C)nc2ccccc12
EC50 [13]: 3.76 µM (active)

COc1ccc(/C=N/Nc2nc(-c3ccc(C)cc3)c(NC(C)=O)s2)cc1
CC50 [14]: > 40 µM (active)

CC[N+](C)(CC)CCC/C(=N/O)C(O)(c1ccccc1)c1ccccc1
IC50 [1]: 5.57 µM (active) | IC50 [2]: > 100 µM (inactive)

O=C(c1cc(-c2ccc(Cl)cc2Cl)n[nH]1)N1CCN(CCO)CC1
IC50 [4]: > 100 µM (not active) | IC50 [5]: > 100 µM (inactive)

CC(=O)OC[C@]12CCC(C)=C[C@H]1O[C@@H]1[C@H](O)[C@@H](OC(C)=O)[C@@]2(C)[C@]12CO2 [ANGUIDIN]
Absolute IC50 (XBP1) (X-box-binding protein 1): 0.16 µM
